Experimental findings from US10233173B2, “Substituted 1,2,3-triazoles as NR2B-selective NMDA modulators” (JANSSEN PHARMACEUTICA NV, priority 2016, dated 2019) are described below.

In the first test the target is human GluN1/GluN2B NMDA receptors (Homo sapiens, UniProt Q05586+Q13224). As to the kind of experiment: Cell-based calcium flux (FLIPR) assay on cloned human NR1/NR2B ion channels expressed in mammalian cells. As to conditions: standard assay; glutamate at ~EC80; FLIPR calcium flux. The essentials: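 Calcium influx followed by FLIPR fluorescence after 5 min compound exposure and a further 5 min co-agonist challenge: 10 μM glycine with glutamate at ~EC80 (standard) or EC40 (HTS).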
human GluN1/GluN2B NMDA receptors, sequence (Q13224 27-1484, other chains not shown): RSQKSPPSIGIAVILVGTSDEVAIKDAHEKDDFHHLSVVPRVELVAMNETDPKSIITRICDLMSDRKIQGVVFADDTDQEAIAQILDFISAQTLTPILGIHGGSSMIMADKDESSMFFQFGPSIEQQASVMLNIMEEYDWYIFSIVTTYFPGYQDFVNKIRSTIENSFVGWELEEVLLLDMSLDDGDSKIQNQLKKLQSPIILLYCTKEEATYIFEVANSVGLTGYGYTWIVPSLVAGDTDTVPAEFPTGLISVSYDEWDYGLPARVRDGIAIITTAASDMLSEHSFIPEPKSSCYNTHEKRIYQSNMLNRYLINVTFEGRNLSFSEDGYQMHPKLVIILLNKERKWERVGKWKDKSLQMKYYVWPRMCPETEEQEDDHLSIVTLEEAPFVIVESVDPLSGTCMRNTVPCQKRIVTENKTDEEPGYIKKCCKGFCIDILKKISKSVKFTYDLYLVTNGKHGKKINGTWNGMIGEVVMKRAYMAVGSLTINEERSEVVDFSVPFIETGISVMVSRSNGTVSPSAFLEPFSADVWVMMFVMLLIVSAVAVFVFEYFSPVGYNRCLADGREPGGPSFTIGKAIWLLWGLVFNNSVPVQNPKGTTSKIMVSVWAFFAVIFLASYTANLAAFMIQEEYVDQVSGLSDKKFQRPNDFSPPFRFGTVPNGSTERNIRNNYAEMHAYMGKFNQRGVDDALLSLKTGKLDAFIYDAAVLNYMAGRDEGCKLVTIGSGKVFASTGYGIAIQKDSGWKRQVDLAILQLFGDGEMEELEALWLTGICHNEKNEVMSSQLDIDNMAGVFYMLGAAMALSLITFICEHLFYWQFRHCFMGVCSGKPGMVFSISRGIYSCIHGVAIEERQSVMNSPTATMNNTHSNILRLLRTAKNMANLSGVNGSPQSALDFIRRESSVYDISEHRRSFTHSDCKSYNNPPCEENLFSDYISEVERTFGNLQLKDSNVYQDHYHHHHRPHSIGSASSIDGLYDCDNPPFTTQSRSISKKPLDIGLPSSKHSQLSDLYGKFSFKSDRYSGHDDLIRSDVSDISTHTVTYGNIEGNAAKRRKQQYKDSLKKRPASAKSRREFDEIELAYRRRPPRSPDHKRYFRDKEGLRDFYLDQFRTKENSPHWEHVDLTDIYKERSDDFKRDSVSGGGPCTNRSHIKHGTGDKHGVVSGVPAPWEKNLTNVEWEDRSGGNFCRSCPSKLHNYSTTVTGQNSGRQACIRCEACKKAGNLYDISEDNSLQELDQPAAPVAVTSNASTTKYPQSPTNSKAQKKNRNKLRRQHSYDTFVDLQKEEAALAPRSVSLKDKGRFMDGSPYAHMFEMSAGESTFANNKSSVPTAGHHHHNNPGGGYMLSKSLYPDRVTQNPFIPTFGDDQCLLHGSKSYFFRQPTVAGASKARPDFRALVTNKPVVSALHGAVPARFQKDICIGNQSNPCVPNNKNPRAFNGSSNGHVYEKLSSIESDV
Consider `Fc1ccc(-n2cc(COc3ncc(F)c(NCC(F)F)n3)nn2)cc1OC(F)F` [Example 517, N-(2,2-Difluoroethyl)-2-[[1-[3-(difluoromethoxy)-4-fluoro-phenyl]triazol-4-yl]methoxy]-5-fluoro-pyrimidin-4-amine], for which the IC50 was determined as 0.912 µM.
Still for that read-out and setting: in the case of `Cc1cccc(-n2cc(COc3ncc(C(F)(F)F)cn3)nn2)c1F` [Example 469, 2-[[1-(2-Fluoro-3-methyl-phenyl)triazol-4-yl]methoxy]-5-(trifluoromethyl)pyrimidine] it was 1.06 µM.
For `Cc1cnc(OCc2cn(-c3ccc(F)cc3C)nn2)nc1` [Example 490, 2-[[1-(4-Fluoro-2-methyl-phenyl)triazol-4-yl]methoxy]-5-methyl-pyrimidine], the IC50 worked out at 2.44 µM.
Consider `CCc1cnc(OCc2cn(-c3cccc(C)n3)nn2)nc1` [Example 660, 5-Ethyl-2-[[1-(6-methyl-2-pyridyl)triazol-4-yl]methoxy]pyrimidine], for which the IC50 is above 2.99 µM.
Take `Cc1cc(-n2cc(COc3ncc(Cl)cn3)nn2)c(F)cc1F` [Example 653, 5-Chloro-2-[[1-(2,4-difluoro-5-methyl-phenyl)triazol-4-yl]methoxy]pyrimidine]: the IC50 was found to be 1.49 µM.
Turning to `COCc1ccnc(OCc2cn(-c3ccc(F)c(C(F)(F)F)c3)nn2)n1` [Example 438, 2-[[1-[4-Fluoro-3-(trifluoromethyl)phenyl]triazol-4-yl]methoxy]-4-(methoxymethyl)pyrimidine], the IC50 was determined as 0.094 µM.
Turning to `Cc1cnc(OCc2cn(-c3cc(C)ccc3F)nn2)nc1` [Example 484, 2-[[1-(2-Fluoro-5-methyl-phenyl)triazol-4-yl]methoxy]-5-methyl-pyrimidine], the IC50 was determined as 1 µM.
Still for that read-out and setting: in the case of `OCc1ccnc(OCc2cn(-c3ccc(F)c(C(F)F)c3)nn2)n1` [Example 400, [2-[[1-[3-(Difluoromethyl)-4-fluoro-phenyl]triazol-4-yl]methoxy]pyrimidin-4-yl]methanol] it was 0.036 µM; in that of `Fc1ccc(-n2cc(COc3ncc(C(F)F)cn3)nn2)cc1C(F)(F)F` [Example 439, 5-(Difluoromethyl)-2-[[1-[4-fluoro-3-(trifluoromethyl)phenyl]triazol-4-yl]methoxy]pyrimidine], 0.013 µM; in that of `COCc1ccnc(OCc2cn(-c3ccc(F)c(Cl)c3)nn2)n1` [Example 622, 2-[[1-(3-Chloro-4-fluoro-phenyl)triazol-4-yl]methoxy]-4-(methoxymethyl)pyrimidine], 0.066 µM.
As to `Cc1cnc(OCc2cn(-c3ccc(Cl)c(C(C)(F)F)c3)nn2)nc1C` [Example 545, 2-[[1-[4-Chloro-3-(1,1-difluoroethyl)phenyl]triazol-4-yl]methoxy]-4,5-dimethyl-pyrimidine], the IC50 came to 0.006 µM.
Same read-out and setting: the value for `OCc1cnc(OCc2cn(-c3ccc(Cl)c(C(F)F)c3)nn2)nc1` [Example 624, [2-[[1-[4-Chloro-3-(difluoromethyl)phenyl]triazol-4-yl]methoxy]pyrimidin-5-yl]methanol] was 0.02 µM; that for `Cc1cnc(OCc2cn(-c3ccc(F)c(C(C)(F)F)c3)nn2)nc1N(C)C` [Example 579, 2-[[1-[3-(1,1-Difluoroethyl)-4-fluoro-phenyl]triazol-4-yl]methoxy]-N,N,5-trimethyl-pyrimidin-4-amine] was 0.087 µM; that for `CC(F)(F)c1cc(-n2cc(COc3ccccn3)nn2)ccc1F` [Example 554, 2-[[1-[3-(1,1-Difluoroethyl)-4-fluoro-phenyl]triazol-4-yl]methoxy]pyridine] was 1.64 µM.
On to `Cc1c(F)ccc(-n2cc(COc3ncc(C(F)(F)F)cn3)nn2)c1F` [Example 643, 2-[[1-(2,4-Difluoro-3-methyl-phenyl)triazol-4-yl]methoxy]-5-(trifluoromethyl)pyrimidine], for which the IC50 worked out at 0.2 µM.
On to `CC(C)c1ccnc(OCc2cn(-c3ccc(F)c(OC(F)F)c3)nn2)n1` [Example 496, 2-[[1-[3-(Difluoromethoxy)-4-fluoro-phenyl]triazol-4-yl]methoxy]-4-isopropyl-pyrimidine], for which the IC50 was 0.114 µM.

The same test, now with this note: standard assay; human GluN1/GluN2B, calcium flux (FLIPR), glutamate ~EC80.
Consider `Cc1ccc(OCc2cn(-c3ccc(F)c(C(F)F)c3)nn2)nc1` [Example 114, 2-[[1-[3-(Difluoromethyl)-4-fluoro-phenyl]triazol-4-yl]methoxy]-5-methyl-pyridine], for which the IC50 stood at 0.021 µM.
With `FC(F)c1cccc(-n2cc(COc3ncc(C(F)(F)F)cn3)nn2)c1` [Example 275, 2-[[1-[3-(Difluoromethyl)phenyl]triazol-4-yl]methoxy]-5-(trifluoromethyl)pyrimidine], the IC50 is 0.025 µM.
Turning to `CC(C)Oc1ccnc(OCc2cn(-c3ccc(Cl)c(OC(F)F)c3)nn2)n1` [Example 386, 2-((1-(4-Chloro-3-(difluoromethoxy)phenyl)-1H-1,2,3-triazol-4-yl)methoxy)-4-isopropoxypyrimidine], the IC50 came out at 0.504 µM.
As to `Cc1ccnc(OCc2cn(-c3cccc(C(F)F)c3)nn2)n1` [Example 268, 2-[[1-[3-(Difluoromethyl)phenyl]triazol-4-yl]methoxy]-4-methyl-pyrimidine], the IC50 was 0.134 µM.
Turning to `Cc1ccnc(OCc2cn(-c3ccc(Cl)c(C(F)F)c3)nn2)n1` [Example 30, 2-[[1-[4-Chloro-3-(difluoromethyl)phenyl]triazol-4-yl]methoxy]-4-methyl-pyrimidine], the IC50 turned out to be 0.004 µM.
As for `COc1cnc(OCc2cn(-c3ccc(F)c(CCCF)c3)nn2)nc1` [Example 194, 2-[[1-[4-Fluoro-3-(3-fluoropropyl)phenyl]triazol-4-yl]methoxy]-5-methoxy-pyrimidine], the IC50 turned out to be 0.061 µM.
Take `CNc1nc(OCc2cn(-c3cccc(C(C)(F)F)c3)nn2)ncc1F` [Example 315, 2-[[1-[3-(1,1-Difluoroethyl)phenyl]triazol-4-yl]methoxy]-5-fluoro-N-methyl-pyrimidin-4-amine]: the IC50 was 0.158 µM.
`CCc1cnc(NCc2cn(-c3ccc(Cl)c(C(F)F)c3)nn2)nc1` [Example 202, N-[[1-[4-Chloro-3-(difluoromethyl)phenyl]triazol-4-yl]methyl]-5-ethyl-pyrimidin-2-amine]: the IC50 came to 0.044 µM.
On to `Fc1cnc(OCc2cn(-c3ccc(Cl)c(OC(F)F)c3)nn2)cn1` [Example 189, 2-[[1-[4-Chloro-3-(difluoromethoxy)phenyl]triazol-4-yl]methoxy]-5-fluoro-pyrazine], for which the IC50 turned out to be 1.46 µM.
Take `Cc1ccnc(NCc2cn(-c3ccc(Cl)c(C(F)F)c3)nn2)n1` [Example 201, N-[[1-[4-Chloro-3-(difluoromethyl)phenyl]triazol-4-yl]methyl]-4-methyl-pyrimidin-2-amine]: the IC50 was found to be 0.1 µM.
On the same count and under the same terms, the value for `Cc1cnc(OCc2cn(-c3ccc(Cl)c(OC(F)F)c3)nn2)cn1` [Example 34, 2-[[1-[4-Chloro-3-(difluoromethoxy)phenyl]triazol-4-yl]methoxy]-5-methyl-pyrazine] was 0.159 µM; that for `Fc1ccc(-n2cc(COc3ncc(Cl)cn3)nn2)cc1Br` [Example 42, 2-((1-(3-bromo-4-fluorophenyl)-1H-1,2,3-triazol-4-yl)methoxy)-5-chloropyrimidine] was 0.003 µM; that for `Cc1ccc(-n2cc(COc3ncccn3)nn2)cc1` [Example 256, 2-[[1-(p-Tolyl)triazol-4-yl]methoxy]pyrimidine] was 4.42 µM.
On to `COc1cnc(OCc2nnn(-c3cccc(C(F)F)c3)c2C)nc1` [Example 172, 2-[[1-[3-(Difluoromethyl)phenyl]-5-methyl-triazol-4-yl]methoxy]-5-methoxy-pyrimidine], for which the IC50 is 0.468 µM.
With `Cc1cnc(Cl)nc1OCc1cn(-c2cccc(C(F)F)c2)nn1` [Example 280, 2-Chloro-4-[[1-[3-(difluoromethyl)phenyl]triazol-4-yl]methoxy]-5-methyl-pyrimidine], the IC50 is 0.173 µM.
With `CCc1cnc(OCc2cn(-c3ccc(OC(F)(F)F)cc3)nn2)nc1` [Example 340, 5-Ethyl-2-[[1-[4-(trifluoromethoxy)phenyl]triazol-4-yl]methoxy]pyrimidine], the IC50 stood at 0.794 µM.
The same measure, in the same setting: in the case of `FC(F)Oc1cc(-n2cc(COc3ncc(Cl)cn3)nn2)ccc1Cl` [Example 28, 5-Chloro-2-[[1-[4-chloro-3-(difluoromethoxy)phenyl]triazol-4-yl]methoxy]pyrimidine] it was 0.002 µM.
For `CC(C)c1cccc(-n2cc(COc3ncccn3)nn2)c1` [Example 262, 2-[[1-(3-Isopropylphenyl)triazol-4-yl]methoxy]pyrimidine], the IC50 stood at 0.358 µM.
Still for that read-out and setting: in the case of `CC(F)(F)c1cc(-n2cc(COc3ncc(Br)cn3)nn2)ccc1F` [Example 183, 5-Bromo-2-[[1-[3-(1,1-difluoroethyl)-4-fluoro-phenyl]triazol-4-yl]methoxy]pyrimidine] it was 0.009 µM; in that of `FC(F)Oc1cc(-n2cc(COc3cccnn3)nn2)ccc1Cl` [Example 14, 3-[[1-[4-Chloro-3-(difluoromethoxy)phenyl]triazol-4-yl]methoxy]pyridazine], 0.401 µM; in that of `COc1cnc(OCc2cn(-c3ccc(F)c(CCCCl)c3)nn2)nc1` [Example 195, 2-[[1-[3-(3-Chloropropyl)-4-fluoro-phenyl]triazol-4-yl]methoxy]-5-methoxy-pyrimidine], 0.136 µM.
In the case of `CC(F)(F)c1cccc(-n2cc(COc3ncc(Br)cn3)nn2)c1` [Example 293, 5-Bromo-2-[[1-[3-(1,1-difluoroethyl)phenyl]triazol-4-yl]methoxy]pyrimidine], the IC50 is 0.039 µM.
On the same count and under the same terms, the value for `CCc1cnc(OCc2cn(-c3ccc(Cl)c(OC(F)F)c3)nn2)nc1` [Example 27, 2-[[1-[4-Chloro-3-(difluoromethoxy)phenyl]triazol-4-yl]methoxy]-5-ethyl-pyrimidine] was 0.009 µM.
On to `Cc1ccc(OCc2cn(-c3ccc(F)c(OC(F)F)c3)nn2)nc1` [Example 118, 2-[[1-[3-(Difluoromethoxy)-4-fluoro-phenyl]triazol-4-yl]methoxy]-5-methyl-pyridine], for which the IC50 is 0.026 µM.
